Assays:
[1] = test system: HEK293 DNA-PK KO cells; test: HDR levels by GFP-to-BFP conversion assay in DNA-PK KO cells clone 22 treated with small molecule inhibitors; assay type: cell-based, human; settings: for HDR levels (% of BFP+ cells over DMSO): 1 μM inhibitor added with Cas9, guide RNA and ssDNA encoding BFP, DNA-PK KO cells clone 22, drugs washed off 24 hours later; for BFP+ increase over DMSO (dose dependent effect on HDR): 10, 5, 1, 0.5, 0.1 and 0.01 μM, DNA-PK KO cells, 24 hours after drug treatment
Description: Eighteen targets were targeted with 38 drugs. […] Small molecule inhibitors were added in the media simultaneously with the introduction of Cas9, guide RNA and single-stranded DNA (ssDNA) encoding BFP. HDR levels were measured with the BFP-to-GFP assay. […] Precise repair levels are shown as a % of BFP+ cells over DMSO.
DNA-PK KO cells were tested with the noted compounds at compounds at 10 μM, 5 μM, 1 μM, 0.5 μM, 0.1 μM, and 0.01 μM, as for FIGS. 4 and 6. HDR levels are shown as a % of BFP+ cells over DMSO 24 hours after drug treatment.
To study the efficiency of HDR in human cells we used the green fluorescent protein (GFP) to blue fluorescent protein (BFP) pair, where conversion from GFP to BFP requires editing of 2 nucleotides. The CRISPR screens were performed on a K562 human cell line stably expressing a green fluorescent protein (GFP). GFP was targeted with Cas9, guide RNA targeting GFP, and a single stranded DNA (ssDNA) encoding BFP. Efficiency of HDR in cells carrying specific genetic perturbations (genetic inhibition or activation) were identified using fluorescence-activated cell sorting (FACS), followed by guide RNA recovery and quantification using next-generation sequencing (NGS).
The small molecules were tested on DNA-PK knockout HET293 cells at concentrations of 10 μM or 1 μM. Eighteen targets were targeted with 38 drugs. […] Drug validations were performed in DNA-PK KO cells clone 22 treated with dimethyl sulfoxide (DMSO) or 1 or 10 μM of the indicated inhibitors. HDR levels were measured with the BFP-to-GFP assay. Small molecule inhibitors were added in the media simultaneously with the introduction of Cas9, guide RNA and single-stranded DNA (ssDNA) encoding BFP. The drugs were washed off 24 hours later.
The compounds shown in FIG. 6 were further tested for dose dependent effects. The same cells as described above were treated with the noted compounds at compounds at 10 μM, 5 μM, 1 μM, 0.5 μM, 0.1 μM, and 0.01 μM. HDR levels are shown as a % of BFP+ cells over DMSO 24 hours after drug treatment (FIG. 7).

[2] = test system: RFC5, TUBA1B, NEDD8, LIG4, POLQ and RAD51 knock-out lines; test: HDR levels by cell sorting in gene knock out cell lines treated with DNA-PK inhibitor; assay type: cell-based, human; settings: 2 μM DNA-PK inhibitor in RFC5, TUBA1B
Description: Knock out cell lines of the indicated genes were treated with 2 μM of DNA-PK inhibitor. HDR levels were determined by cell sorting.
The inventors identified regulators of homologous directed repair (HDR) that synergize with inhibition of non-homologous end-joining (NHEJ) and further increase HDR levels in human cells. The inventors targeted all of the 20,000 genes in the human genome using a pair of CRISPR-based screens to identify genes that, upon loss (knock-out) or gain (overexpression), increase precise gene repair. Using a CRISPR inhibition screen, a ranked list of the effect of loss of every human gene on precise gene repair. In a CRISPR activation screen, we produced a ranked list of the effect of gain of every human gene on precise gene repair. Combinatorial effects of multiple gene/drug perturbations on boosting precise gene repair were also examined. […]
To study the efficiency of HDR in human cells we used the green fluorescent protein (GFP) to blue fluorescent protein (BFP) pair, where conversion from GFP to BFP requires editing of 2 nucleotides. […] Efficiency of HDR in cells carrying specific genetic perturbations (genetic inhibition or activation) were identified using fluorescence-activated cell sorting (FACS), followed by guide RNA recovery and quantification using next-generation sequencing (NGS).
HDR levels were determined by cell sorting.

[3] = test system: HEK293 DNA-PK KO cells; test: MTT cytotoxicity assay after 24 hours drug treatment; assay type: cell-based, human; settings: 10, 5, 1, 0.5, 0.1 and 0.01 μM
Description: FIG. 8 is a heat plot showing cytotoxicity after drug treatment. HEK293 DNA-PK KO cells were treated with the noted compounds at 10 μM, 5 μM, 1 μM, 0.5 μM, 0.1 μM, and 0.01 μM in triplicate. After 24 hours an MTT assay was performed.
The same compounds were also tested for cytotoxicity at 10 μM, 5 μM, 1 μM, 0.5 μM, 0.1 μM, and 0.01 μM.

[4] = test system: human K562 PRKDC−/− cells; test: Precise repair (% BFP conversion) after SpCas9 RNP, EGFP-targeting sgRNA and EBFP ssODN nucleofection; assay type: cell-based; settings: 1 μM, DMSO control 56%
Description: To investigate the effect of combinatorial inhibition using a DNA-PK inhibitor and another inhibitor on HDR gene editing rates, human K562 PRKDC−/− cells (a DNA Knock Out cell line) were nucleofected with SpCas9 RNPs with an EGFP-targeting sgRNA and EBFP ssODN and then incubated with 1 μM (micro molar) concentration ST1926 (an inhibitor of POLA1) or DMSO treated (control). Gene editing rates are expressed in percentages and classified as % precise repair (% BFP conversion). The combination of ST1926 treatment in PRKDC-null human cells boosted precise editing from 56% to 73%.

Row | Compound | HDR levels (% of BFP+ cells over DMSO) [1] | also measured
1 | N#Cc1ccc(COC[C@H]2O[C@@H](n3c(NCc4ccc(Cl)c(Cl)c4)nc4c(N)ncnc43)[C@H](O)[C@@H]2O)cc1 [VER155008] | increased HDR levels | 
2 | COc1cc(-c2cn(C)c(=O)c3cnccc23)cc(OC)c1CN(C)C [BI-7273] | increased HDR levels | 
3 | O=c1cc(N2CCOCC2)oc2c(-c3cccc4c3sc3ccccc34)cccc12 [NU7441] |  | HDR levels [2]: significant increase in the HDR levels
4 | O=C(O)c1ccc2cc(-c3ccc(O)c(C45CC6CC(CC(C6)C4)C5)c3)ccc2c1 [CD437] | increased HDR levels | 
5 | Nc1ncnc2c1c(COc1cccc(Cl)c1)nn2C1CCOCC1 [PF 4800567] | increased HDR levels | 
6 | Cc1ncc(CCCN(C)C)cc1Nc1ncc2c(n1)-c1ccc(C(F)(F)F)cc1NC(=S)C2 [MLN0905] | increased HDR levels | 
7 | CC(=O)Nc1nc(-c2cccc(NS(=O)(=O)c3cccc4c(N(C)C)cccc34)c2)cs1 [HA15] | increased HDR levels | 
8 | NC(=O)/C(=C/n1cnc(-c2cc(C(F)(F)F)cc(C(F)(F)F)c2)n1)c1cncnc1 [Eltanexor (KPT-8602), Eltanexor] | increased HDR levels | 
9 | CO[C@@H]1[C@@H](OC(N)=O)[C@@H](O)[C@H](Oc2ccc3c(O)c(NC(=O)c4ccc(O)c(CC=C(C)C)c4)c(=O)oc3c2C)OC1(C)C [Novobiocin] | increased HDR levels | 
10 | CCn1cc(-c2cccc(C(F)(F)F)c2)c2sc(C(=N)NC3CCS(=O)(=O)CC3)cc2c1=O [I-BRD9] | increased HDR levels | 
11 | O=C(/C=C\n1cnc(-c2cc(C(F)(F)F)cc(C(F)(F)F)c2)n1)N1CC(F)(F)C1 [KPT-276] | increased HDR levels | BFP+ increase over DMSO (dose dependent effect on HDR) [1]: promote HDR at low concentration; cytotoxicity over DMSO (MTT, viable cells) [3]: toxic at high concentration
12 | C=CC(=O)Nc1ccc(C(=O)Nc2n[nH]c3c2CN(C(=O)N[C@H](CN(C)C)c2ccccc2)C3(C)C)cc1 [YKL-5-124] | increased HDR levels | 
13 | COc1ccc(CCNCc2ccc(OCc3ccc(Cl)nc3)c(OC)c2)cc1OC.Cl [SBE 13 HCl] |  | BFP+ increase over DMSO (dose dependent effect on HDR) [1]: dose-dependent increase in HDR; cytotoxicity over DMSO (MTT, viable cells) [3]: low toxicity
14 | Nc1nccc(-c2c(-c3ccc(F)cc3)ncn2C2CCCCC2)n1 [PF-670462] | increased HDR levels | 
15 | c1ccc(CNc2nc(NCc3ccccc3)c3ccccc3n2)cc1 [DBeQ] | increased HDR levels | 
16 | Cc1cc(OCc2nnc(SC3CCCC3)n2-c2cccnc2)ccc1-c1ccc(S(C)(=O)=O)cc1 [NMS-873] | increased HDR levels | 
17 | O=C(O)Cn1c2c(c3cc(F)ccc31)CN(C(=O)c1cccc3ccccc13)CC2 [Setipiprant] | increased HDR levels | 
18 | O=C(O)/C=C/c1ccc(-c2ccc(O)c(C34CC5CC(CC(C5)C3)C4)c2)cc1 [ST1926] | increased HDR levels | % precise repair (% BFP conversion) [4]: 73%
19 | Cc1nc(Nc2n[nH]c3c2CN(C(=O)N[C@H](CN(C)C)c2ccccc2)C3(C)C)c2sccc2n1 [PF-3758309] | increased HDR levels | 
20 | COc1cc(Nc2ncc3c(n2)-c2ccc(Cl)cc2C(c2c(F)cccc2OC)=NC3)ccc1C(=O)O [Alisertib] | increased HDR levels | 
21 | Cc1cc2c(C(N)=O)cccc2n1-c1nc2c(c(NCc3ccccc3)n1)COCC2 [CB-5083] | increased HDR levels | 
22 | COC(=O)[C@H](CCSC)NC(=O)c1ccc(NC[C@@H](N)CS)cc1-c1ccccc1.Cl [FTI 277 HCl] | increased HDR levels | 
